Measurements as given in PubChem BioAssay (NCI).
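Exposure lasted 48 hours, with cells grown in 96-well plates and compounds tested at five concentrations. TGI: total growth inhibition.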

Tests used:
Experiment in all cases: NCI tumour cell line growth inhibition, 48 h
SNB-75 CNS = system: SNB-75 CNS
MDA-N = system: MDA-N
OVCAR-8 ovarian = system: OVCAR-8 ovarian
M14 melanoma = system: M14 melanoma
DU-145 prostate = system: DU-145 prostate
HL-60(TB) leukemia = system: HL-60(TB) leukemia
PC-3 prostate = system: PC-3 prostate
NCI-H460 lung = system: NCI-H460 lung
SW-620 colon = system: SW-620 colon
TK-10 renal = system: TK-10 renal
SNB-19 CNS = system: SNB-19 CNS
NCI/ADR-RES ovarian = system: NCI/ADR-RES ovarian
MCF7 breast = system: MCF7 breast
IGROV1 ovarian = system: IGROV1 ovarian
UACC-62 melanoma = system: UACC-62 melanoma
OVCAR-4 ovarian = system: OVCAR-4 ovarian
SK-MEL-2 melanoma = system: SK-MEL-2 melanoma
T-47D breast = system: T-47D breast
HS 578T breast = system: HS 578T breast

Row | Compound | TGI (SNB-75 CNS) [µM] | TGI (MDA-N) [µM] | TGI (OVCAR-8 ovarian) [µM] | TGI (M14 melanoma) [µM] | TGI (DU-145 prostate) [µM] | TGI (HL-60(TB) leukemia) [µM] | TGI (PC-3 prostate) [µM] | TGI (NCI-H460 lung) [µM] | TGI (SW-620 colon) [µM] | TGI (TK-10 renal) [µM] | TGI (SNB-19 CNS) [µM] | TGI (NCI/ADR-RES ovarian) [µM] | TGI (MCF7 breast) [µM] | TGI (IGROV1 ovarian) [µM] | TGI (UACC-62 melanoma) [µM] | TGI (OVCAR-4 ovarian) [µM] | TGI (SK-MEL-2 melanoma) [µM] | TGI (T-47D breast) [µM] | TGI (HS 578T breast) [µM]
1 | COc1cc(CNC2=NCCC2)cc(OC)c1OC | > 100 | > 100 | > 100 | > 100 | > 100 | > 100 | > 100 | > 100 | > 100 | > 100 | > 100 | > 100 | > 100 | > 100 | > 100 | > 100 |  |  | 
2 | COC(=O)c1c2c(cc3c1CC1(C3)Cc3cc4c(c(C(C)=O)c3C1)CCC4)C=CC2 (centres undefined) | 31.2 |  | > 31.6 | > 31.6 | > 31.6 | > 31.6 | > 31.6 | > 31.6 |  | > 31.6 | > 31.6 | > 31.6 | > 31.6 | > 31.6 | > 31.6 | > 31.6 | > 31.6 | > 31.6 | > 31.6
3 | CC(C)(C)CNC(=O)NCn1cc(-c2ccccc2)nn1 |  |  | > 100 | > 100 | > 100 | > 100 | > 100 | > 100 | > 100 | > 100 | > 100 | > 100 | > 100 | > 100 |  |  | > 100 |  | 
4 | CCOC(=O)C(=[N+]=[N-])C(=O)CN1C(=O)C2CC(C)=C(C)CC2C1O (centres undefined) | > 100 | > 100 | > 100 | > 100 | > 100 | > 100 | > 100 | > 100 | > 100 | > 100 | > 100 | > 100 | > 100 | > 100 | > 100 |  | > 100 |  | > 100
5 | O=C(COc1ccc(OCC(=O)NNC2=NC(c3cc(F)c(Cl)cc3Cl)CS2)c(Cl)c1)NNC1=NC(c2cc(F)c(Cl)cc2Cl)CS1 (centres undefined) |  | 92.9 | 64.5 | > 100 | 59.8 | > 100 | > 100 | > 100 | > 100 | > 100 | > 100 | > 100 | 34.6 | > 100 | 40.4 | 40.4 | > 100 |  | 48.7
6 | CN1C(=O)C(C(N)=O)C2CC1(C)Oc1ccccc12 (centres undefined) | > 100 |  | > 100 | > 100 | > 100 | > 100 | > 100 | > 100 | > 100 |  | > 100 | > 100 | > 100 | > 100 | > 100 | > 100 | > 100 | > 100 | > 100
7 | Cc1ccc2c(c1)C1(OC(=O)c3ccccc31)c1ccc(F)cc1O2 (centres undefined) |  |  | > 100 | > 100 |  | 51 |  |  | > 100 | > 100 |  |  |  | > 100 | > 100 | > 100 | > 100 |  | 
8 | Cc1c(/C=N/NC(=S)Nc2ccccc2)c(=O)n(-c2ccccc2)n1C | > 100 |  | > 100 | > 100 | > 100 | > 100 | > 100 | > 100 | > 100 | > 100 | > 100 | > 100 | > 100 | > 100 | > 100 | > 100 | > 100 | > 100 | > 100
9 | CC(=O)OC1CC2(C)OC(Cc3ccccc32)O1 (centres undefined) | > 100 |  | > 100 | > 100 |  | > 100 |  | > 100 | > 100 | > 100 | > 100 |  |  | > 100 | > 100 |  | > 100 |  | 
10 | Cc1cc(C)nc(SCC(=O)OC2CC(C)CCC2C(C)C)n1 (centres undefined) | 65.8 |  | > 100 | 37 | > 100 | 44.2 | 69.5 | 35.8 | 52.3 | 89.9 | 45.9 | 50.7 | 50.7 | 65.6 | 33.9 | 50.6 | 41.9 | 54.2 | > 100
11 | O=[N+]1ON=C(c2ccccc2)C1=C1C(c2c(-c3ccccc3)no[n+]2[O-])=NON1[O-] | 33.2 | 10.5 | > 100 | > 100 | > 100 | 7.52 | 11.3 | 68.7 | > 100 | > 100 | > 100 | > 100 | 7.51 | > 100 | 51.2 | 9.79 |  |  | > 100
12 | Cc1ccc(NCC(=O)N2CC(=O)Nc3ccccc32)cc1 | > 100 |  | > 100 | > 100 |  | > 100 |  | > 100 | > 100 | > 100 | > 100 |  |  |  | > 100 | > 100 | > 100 |  | 
13 | c1cnc2c(c1)-n1cccc1C1(CCSC1)NN2 (centres undefined) | > 100 |  | > 100 | > 100 |  | > 100 |  | > 100 | > 100 | > 100 | > 100 |  |  |  |  | > 100 | > 100 |  | 
14 | O=C(NNC(=S)Nc1ccc(Br)cc1)c1cc(-c2ccccc2)nc2ccccc12 | > 100 |  | 57.7 | 34.8 | 40.8 |  | 46.3 | 43.5 | 46.9 | 42.2 | > 100 | 51.8 | 47.1 | > 100 | 50.2 | 46.5 | 41.7 | 60.9 | 94.2
15 | O=c1c(C2=NCCC2)c(-c2ccc[nH]2)[nH]n1-c1ccccc1 | > 100 | > 100 | > 100 | > 100 | > 100 | > 100 | > 100 | > 100 | > 100 | > 100 | > 100 | > 100 |  |  | > 100 | > 100 | > 100 | > 100 | 
